IC50 data for five molecules are collected here from ChEMBL document CHEMBL1150040 (Bioorg Med Chem Lett, 1995).

Molecules are shown by their SMILES.

The target of experiment [1] is T1, Protein kinase C beta type (Homo sapiens, UniProt P05771). In words: Inhibition of human Protein kinase C beta 1.
Experiment [2] concerns the target Protein kinase C eta type (Homo sapiens, UniProt P24723). In words: Inhibition of human protein kinase C eta.
Experiment [3] concerns the target T1, Protein kinase C beta type. The experiment is described as follows: Inhibition of human Protein kinase C beta 2.
The target of experiment [4] is Protein kinase C alpha type (Homo sapiens, UniProt P17252). In words: Inhibition of human Protein kinase C alpha.
For experiment [5], the target named is T2, Protein kinase C zeta type (Homo sapiens, UniProt Q05513).
T2 sequence (Q05513 whole entry): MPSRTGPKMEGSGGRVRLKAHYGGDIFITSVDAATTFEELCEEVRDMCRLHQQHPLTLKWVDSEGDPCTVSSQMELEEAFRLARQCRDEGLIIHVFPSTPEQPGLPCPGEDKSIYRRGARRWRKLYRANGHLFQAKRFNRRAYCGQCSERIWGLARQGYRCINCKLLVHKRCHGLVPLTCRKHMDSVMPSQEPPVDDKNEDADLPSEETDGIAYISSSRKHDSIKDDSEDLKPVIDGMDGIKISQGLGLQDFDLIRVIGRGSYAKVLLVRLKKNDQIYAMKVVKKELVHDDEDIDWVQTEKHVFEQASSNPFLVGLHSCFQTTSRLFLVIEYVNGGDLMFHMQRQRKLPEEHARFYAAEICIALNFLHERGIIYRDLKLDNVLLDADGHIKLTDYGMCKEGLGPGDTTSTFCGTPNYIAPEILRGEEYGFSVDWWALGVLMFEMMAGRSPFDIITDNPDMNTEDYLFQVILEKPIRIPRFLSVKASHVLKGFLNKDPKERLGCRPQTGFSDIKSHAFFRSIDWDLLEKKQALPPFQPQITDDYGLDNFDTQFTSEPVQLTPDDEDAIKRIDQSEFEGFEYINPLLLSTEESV
The experiment is described as follows: Inhibition of Protein kinase C zeta.

The target in experiment [6] is Protein kinase C gamma type (Homo sapiens, UniProt P05129). In words: Inhibition of human Protein kinase C gamma.
Experiment [7] deals with Protein kinase C delta type (Homo sapiens, UniProt Q05655). In words: Inhibition of human Protein kinase C delta.
Protein kinase C delta type, sequence (Q05655 whole entry): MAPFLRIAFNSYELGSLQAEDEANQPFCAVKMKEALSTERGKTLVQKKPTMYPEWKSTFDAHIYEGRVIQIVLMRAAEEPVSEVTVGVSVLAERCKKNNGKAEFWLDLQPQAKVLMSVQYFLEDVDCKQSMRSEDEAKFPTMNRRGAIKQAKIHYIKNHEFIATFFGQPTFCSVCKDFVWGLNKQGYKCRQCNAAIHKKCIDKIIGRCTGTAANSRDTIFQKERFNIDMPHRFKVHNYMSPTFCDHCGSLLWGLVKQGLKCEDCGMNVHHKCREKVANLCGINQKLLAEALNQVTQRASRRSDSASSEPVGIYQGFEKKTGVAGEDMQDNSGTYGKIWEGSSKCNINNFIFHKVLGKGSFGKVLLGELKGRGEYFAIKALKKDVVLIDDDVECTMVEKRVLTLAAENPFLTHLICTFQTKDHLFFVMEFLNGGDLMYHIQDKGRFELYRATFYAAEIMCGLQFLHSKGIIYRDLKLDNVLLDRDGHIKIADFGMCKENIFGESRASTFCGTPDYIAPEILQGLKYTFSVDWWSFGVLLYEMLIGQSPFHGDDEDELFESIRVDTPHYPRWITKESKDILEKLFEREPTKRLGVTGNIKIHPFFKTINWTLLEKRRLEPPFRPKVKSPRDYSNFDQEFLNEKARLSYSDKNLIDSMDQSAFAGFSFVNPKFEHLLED
Experiment [8] addresses T3, Protein kinase C epsilon type (Homo sapiens, UniProt Q02156).
T3 sequence (Q02156 whole entry): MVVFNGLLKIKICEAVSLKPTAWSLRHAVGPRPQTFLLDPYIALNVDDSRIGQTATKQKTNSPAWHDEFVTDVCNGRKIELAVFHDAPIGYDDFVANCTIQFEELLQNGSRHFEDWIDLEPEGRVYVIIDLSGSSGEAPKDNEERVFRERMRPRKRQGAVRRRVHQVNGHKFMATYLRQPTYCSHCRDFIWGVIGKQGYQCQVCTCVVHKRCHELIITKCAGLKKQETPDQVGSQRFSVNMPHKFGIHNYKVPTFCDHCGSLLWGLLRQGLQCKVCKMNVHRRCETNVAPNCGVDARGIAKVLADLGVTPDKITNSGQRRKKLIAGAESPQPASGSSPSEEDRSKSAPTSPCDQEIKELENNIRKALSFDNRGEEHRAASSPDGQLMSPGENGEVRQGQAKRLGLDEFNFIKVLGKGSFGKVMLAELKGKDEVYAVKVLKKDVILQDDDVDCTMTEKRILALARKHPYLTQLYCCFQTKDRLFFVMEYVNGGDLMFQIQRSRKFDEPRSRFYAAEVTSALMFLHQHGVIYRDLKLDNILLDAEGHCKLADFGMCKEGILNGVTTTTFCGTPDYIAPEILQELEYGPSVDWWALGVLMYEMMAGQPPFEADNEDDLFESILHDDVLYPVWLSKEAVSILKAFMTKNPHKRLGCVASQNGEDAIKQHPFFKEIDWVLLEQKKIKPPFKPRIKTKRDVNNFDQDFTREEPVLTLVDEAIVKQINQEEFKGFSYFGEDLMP
In words: Inhibition of human Protein kinase C epsilon.

T1 sequence (P05771 whole entry): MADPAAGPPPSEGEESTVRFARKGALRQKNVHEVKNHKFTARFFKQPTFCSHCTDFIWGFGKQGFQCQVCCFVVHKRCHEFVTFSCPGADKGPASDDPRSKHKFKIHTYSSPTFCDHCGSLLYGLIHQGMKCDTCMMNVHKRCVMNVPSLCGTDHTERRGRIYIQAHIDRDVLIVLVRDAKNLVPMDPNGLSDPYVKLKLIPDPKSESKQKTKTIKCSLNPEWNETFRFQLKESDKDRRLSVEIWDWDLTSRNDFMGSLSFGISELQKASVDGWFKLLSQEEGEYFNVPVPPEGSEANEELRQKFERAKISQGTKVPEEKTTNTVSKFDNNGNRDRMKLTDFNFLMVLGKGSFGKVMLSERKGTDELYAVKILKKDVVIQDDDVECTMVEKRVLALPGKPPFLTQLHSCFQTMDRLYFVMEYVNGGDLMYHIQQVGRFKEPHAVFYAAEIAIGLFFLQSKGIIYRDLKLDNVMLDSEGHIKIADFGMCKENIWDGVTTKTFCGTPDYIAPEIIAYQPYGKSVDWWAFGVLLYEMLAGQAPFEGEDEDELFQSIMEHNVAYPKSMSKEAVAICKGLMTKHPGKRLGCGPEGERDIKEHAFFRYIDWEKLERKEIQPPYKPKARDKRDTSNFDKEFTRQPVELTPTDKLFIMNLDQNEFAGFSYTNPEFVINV
Protein kinase C eta type, sequence (P24723 whole entry): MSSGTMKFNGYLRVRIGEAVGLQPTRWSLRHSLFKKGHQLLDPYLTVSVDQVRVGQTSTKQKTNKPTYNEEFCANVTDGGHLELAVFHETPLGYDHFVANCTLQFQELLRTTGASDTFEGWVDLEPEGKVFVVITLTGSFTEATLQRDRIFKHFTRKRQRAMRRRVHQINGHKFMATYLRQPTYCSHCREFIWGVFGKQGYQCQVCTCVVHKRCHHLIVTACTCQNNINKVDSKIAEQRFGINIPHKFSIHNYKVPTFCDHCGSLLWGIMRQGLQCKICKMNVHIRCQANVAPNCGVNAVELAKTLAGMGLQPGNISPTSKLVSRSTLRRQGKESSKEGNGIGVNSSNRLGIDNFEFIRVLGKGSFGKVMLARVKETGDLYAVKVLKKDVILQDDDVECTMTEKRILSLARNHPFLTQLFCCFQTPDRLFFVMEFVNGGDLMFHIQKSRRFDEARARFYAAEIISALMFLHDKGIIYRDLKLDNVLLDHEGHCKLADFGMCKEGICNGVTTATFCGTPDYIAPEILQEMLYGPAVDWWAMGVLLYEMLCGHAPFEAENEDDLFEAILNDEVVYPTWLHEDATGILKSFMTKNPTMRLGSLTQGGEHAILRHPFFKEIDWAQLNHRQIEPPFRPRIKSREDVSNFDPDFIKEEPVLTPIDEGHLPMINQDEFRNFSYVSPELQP

The IC50 is the concentration that gives 50% inhibition. A high value points to lower potency. Turning to `O=C(N[C@@H]1CNCCC[C@H]1OC(=O)c1cc(O)c(C(=O)c2c(O)cccc2C(=O)O)c(O)c1)c1ccc(O)cc1` (racemic) [BALANOL], the IC50 in experiment [1] was 0.032 µM; in experiment [2], 0.022 µM; in experiment [3] it was 0.044 µM; in experiment [4], 0.074 µM; in experiment [5] it was 3.5 µM; in experiment [6], 0.034 µM. Further, in experiment [7], the IC50 was 0.032 µM.
Take `O=C(N[C@@H]1CCC[C@H]1OC(=O)c1cc(O)c(C(=O)c2c(O)cccc2C(=O)O)c(O)c1)c1ccc(O)cc1`: the IC50 turned out to be 0.04 µM in experiment [1]; 0.0006 µM in experiment [2]; 0.05 µM in experiment [3]; 0.04 µM in experiment [4]; 0.01 µM in experiment [6]; 0.0009 µM in experiment [7]. Further, the IC50 in experiment [8] is 0.05 µM.
On to `O=C(N[C@@H]1CCCCC[C@H]1OC(=O)c1cc(O)c(C(=O)c2c(O)cccc2C(=O)O)c(O)c1)c1ccc(O)cc1`, for which the IC50 in experiment [1] is 0.22 µM; in experiment [2], 0.06 µM; in experiment [3], 0.43 µM; in experiment [4], 0.27 µM; in experiment [5], greater than 150 µM; in experiment [6], 0.06 µM. The IC50 in experiment [7] was 0.09 µM; in experiment [8], 0.28 µM.
Turning to `O=C(N[C@@H]1CNCC[C@H]1OC(=O)c1cc(O)c(C(=O)c2c(O)cccc2C(=O)O)c(O)c1)c1ccc(O)cc1`, the IC50 is 2.2 µM in experiment [1]; 0.08 µM in experiment [2]; 4.7 µM in experiment [3]; 5.1 µM in experiment [4]; greater than 150 µM in experiment [5]; 2.2 µM in experiment [6]. The IC50 in experiment [7] stood at 0.05 µM; in experiment [8], 1.8 µM.
With `O=C(N[C@@H]1CNC[C@H]1OC(=O)c1cc(O)c(C(=O)c2c(O)cccc2C(=O)O)c(O)c1)c1ccc(O)cc1`, the IC50 in experiment [1] is 0.017 µM; in experiment [2], 0.004 µM; in experiment [3], 0.033 µM; in experiment [4], 0.022 µM; in experiment [5] it was greater than 0.15 µM; in experiment [6] it was 0.013 µM. Also, the values for the IC50 in experiment [7] and in experiment [8] were 0.005 µM and 0.01 µM, respectively.
